Test results reported in patent US4762848A, “1,3-thiazoles and their use as immunomodulators” (Hoechst Aktiengesellschaft, priority 1985, dated 1988).

Columns and labels:
Format in all cases: in vivo, NMRI mice
DTH reaction (SRBC) = experiment: Stimulation of the DTH reaction, relative to the compound from Example 7; details: 200 mg/kg, 1 × i.p. day 0; Example 7 = 100%
Protocol: Either 10^6 or 10^9 red blood cells from sheep were administered intravenously to each animal in groups of 5 female NMRI mice weighing 18-20 g. Sheep erythrocytes are regarded in immunology as a standard test substance (antigen) for the induction of cellular and humoral immune reactions. In particular, this test provides information about the functioning of the T-cell-dependent component (T-helper cells) of the immune system. The test substance obtained as in exemplary embodiment 7 ([2-(3-carboxy-1-propylthio)-4 -methyl-1,3-thiazol-5-yl]acetic acid) was administered intraperitoneally and perorally, respectively, […], each animal received 2×10^8 sheep erythrocytes injected into the underside of the foot and, 24 hours later, the swelling of the foot was measured. The foot swelling is induced by a skin reaction of the delayed type (delayed type hypersensitivity, DTH) and is, as is known to the expert, a measure of the cellular immune response (Collins, F. M. and Mackaness, G. B., J. Immunol. 101, 830-845, 1968). The results compiled in Table 1 illustraste that there is an increase in the cellular immune response owing to the administration of the subst nce obtained according to the invention, for example after imnunization with 10^6 or 10^9 sheep erythrocytes. An optimum stimulation can be observed in this experimental design on administration of 20-40 mg/kg test substance.
NMRI mice were treated with the substances according to the invention as described in experiment 1.
The DTH reaction was checked as a test to determine the immunostimulation.
It can be seen from the table that the DTH reaction in the animals pretreated with the test substances is more pronounced than in the corresponding control animals.

[1] = system: mouse peritoneal macrophages; experiment: Pinocytosis of colloidal gold (198Au) by peritoneal macrophages of treated mice
Protocol: (§1) This entailed investigation of the effect of the test substance obtained as in exemplary embodiment 7 on the stimulation of peritoneal macrophages in 6-8 week old NMRI mice. Female mice received the test substance in parenteral or oral doses of 25 mg/kg, 50 mg/kg, 100 mg/kg and 200 mg/kg. Buffered saline solution was administered to a control group. The mice were sacrificed three days after the injections, and the peritoneal macrophages of the animals were examined for their state of activation. The secretion of the lysosomal enzymes (β-galactosidase, β-glucuronidase and N-acetyl-β-D-glucosaminidase) was determined as one measure of macrophage activation. […] The level of oxidative metabolism in macrophages is taken as another measure of their state of activation. This activity is measured with the assistance of a biolumate by determination of the chemiluminescence.
(§2) For this purpose, either 3×10^6 macrophages were cultured with 1 ml of TC 199 culture medium in Petri dishes of diameter 30 mm or 10^6 macrophages were cultured with 100 μl of medium in round-bottomed polyethylene tubes (for determination of the chemiluminescence), with 5% CO2 and at 37° C.
(§3) After incubation for one hour, the cultures were washed to remove floating cells. The chemiluminescence (tube culture) was then determined directly, whereas the Petri dishes were incubated for a further 24 hours at 37° C. and then the enzyme and pinocytosis activities in the cultures were determined.
The quantitative determination of the pinocytosis activity of mononuclear phagocytes was carried out by the method of Davies et al. (Davies, P., Allison, A. C. and Haswell, A. D.; Biochem. Biophys. Res. Com. 52, 627, 1973). Radioactive colloidal gold (^198 Au) with a particle size of 20 nm and a specific activity of 4-12 mCi/mg of Au was used for this. The results in Table 4 illustrate the effect of the test substance obtained as in Example 7 on the efficiency of endocytosis.

macrophages [2] = experiment: Stimulation of macrophage activity (exocytosis / lysosomal enzyme activity), relative to the compound from Example 7; details: 100 mg/kg, 1 × i.p. day 0; relative to Example 7 = 100%
Protocol: as §1, §2, §3
(§4) NMRI mice were treated with the compounds according to the invention as described in experiment 2.
(§5) The macrophage function (chemiluminescence and enzyme activity) was checked as a test to determine the immunostimulation.
(§6) It can be seen from the table that in comparison with macrophages from untreated animals, the chemiluminescence reaction of these cells was also greatly stimulated by all the test substances, and their content of lysosomal enzymes was markedly raised.

macrophages [3] = experiment: Stimulation of macrophage activity (chemiluminescence), relative to the compound from Example 7; details: 100 mg/kg, 1 × i.p. day 0; relative to Example 7 = 100%
Protocol: as §1, §2, §3, §4, §5, §6

[4] = system: mouse peritoneal macrophages; experiment: Release of lysosomal hydrolase enzymes from peritoneal macrophages of treated mice; details: for N-Ac-Glu % release: N-acetyl-β-D-glucosaminidase; for β-Gal % release: β-galactosidase; for β-Glu % release: β-glucuronidase
Protocol: as §1, §2, §3
It can be seen from Table 3 that macrophages from control mice release only small amounts of lysosomal enzymes (β-glucuronidase, β-galactosidase and N-acetyl-β-D-glucosaminidase) into the culture supernatant. […] It is evident that the test substance has a stimulant action on macrophage activity and contributes to an increase in enzyme release.

Cc1nc(SCCCC(=O)O)sc1CC(=O)O [Example 7, [2-(3-Carboxy-1-propylthio)-4-methyl-1,3-thiazol-5-yl]acetic acid]
DTH reaction (SRBC), relative activity (DTH reaction (SRBC)): 100% | efficiency of pinocytosis of mouse macrophages ([1]; 25 mg/kg, 1 × intraperitoneal): 0.415 × 10^3 cpm | efficiency of pinocytosis of mouse macrophages ([1]; 25 mg/kg, 1 × oral): 0.365 × 10^3 cpm | efficiency of pinocytosis of mouse macrophages ([1]; 50 mg/kg, 1 × intraperitoneal): 0.558 × 10^3 cpm | efficiency of pinocytosis of mouse macrophages ([1]; 50 mg/kg, 1 × oral): 0.448 × 10^3 cpm | efficiency of pinocytosis of mouse macrophages ([1]; 100 mg/kg, 1 × intraperitoneal): 0.718 × 10^3 cpm | efficiency of pinocytosis of mouse macrophages ([1]; 100 mg/kg, 1 × oral): 0.661 × 10^3 cpm | efficiency of pinocytosis of mouse macrophages ([1]; 200 mg/kg, 1 × intraperitoneal): 0.862 × 10^3 cpm | efficiency of pinocytosis of mouse macrophages ([1]; 200 mg/kg, 1 × oral): 0.739 × 10^3 cpm | Macrophage activity: Exocytosis, relative activity (macrophages [2]): 100% | Macrophage activity: Chemiluminescence, relative activity (macrophages [3]): 100% | N-Ac-Glu % release ([4]; 25 mg/kg, 1 × i.p.): 17.2% | N-Ac-Glu % release ([4]; 25 mg/kg, 1 × p.o.): 15.4% | N-Ac-Glu % release ([4]; 50 mg/kg, 1 × i.p.): 26.0% | N-Ac-Glu % release ([4]; 50 mg/kg, 1 × p.o.): 22.8% | N-Ac-Glu % release ([4]; 100 mg/kg, 1 × i.p.): 40.8% | N-Ac-Glu % release ([4]; 100 mg/kg, 1 × p.o.): 37.3% | N-Ac-Glu % release ([4]; 200 mg/kg, 1 × i.p.): 51.5% | N-Ac-Glu % release ([4]; 200 mg/kg, 1 × p.o.): 45.2% | β-Gal % release ([4]; 25 mg/kg, 1 × i.p.): 24.1% | β-Gal % release ([4]; 25 mg/kg, 1 × p.o.): 20.4% | β-Gal % release ([4]; 50 mg/kg, 1 × i.p.): 33.5% | β-Gal % release ([4]; 50 mg/kg, 1 × p.o.): 26.9% | β-Gal % release ([4]; 100 mg/kg, 1 × i.p.): 52.9% | β-Gal % release ([4]; 100 mg/kg, 1 × p.o.): 43.6% | β-Gal % release ([4]; 200 mg/kg, 1 × i.p.): 65.4% | β-Gal % release ([4]; 200 mg/kg, 1 × p.o.): 54.8% | β-Glu % release ([4]; 25 mg/kg, 1 × i.p.): 20.0% | β-Glu % release ([4]; 25 mg/kg, 1 × p.o.): 17.5% | β-Glu % release ([4]; 50 mg/kg, 1 × i.p.): 30.9% | β-Glu % release ([4]; 50 mg/kg, 1 × p.o.): 25.1% | β-Glu % release ([4]; 100 mg/kg, 1 × i.p.): 42.8% | β-Glu % release ([4]; 100 mg/kg, 1 × p.o.): 38.2% | β-Glu % release ([4]; 200 mg/kg, 1 × i.p.): 58.2% | β-Glu % release ([4]; 200 mg/kg, 1 × p.o.): 49.8%
